# Test results taken from patent publication US10597388B2, “Pyridazinone herbicides” (FMC CORPORATION, priority 2014, dated 2020).
# What was measured:
# Type in all cases: in vivo
# [1] = test system: waterhemp_RES1 (ALS & Triazine resistant common waterhemp, Amaranthus rudis); assay: Test E greenhouse herbicide test, postemergence
# How it was run: (§1)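 Postemergence spray on potted plants, 1–4 leaves, 2–18 cm; greenhouse 14–21 d; visual rating vs controls, 0 (no effect) to 100 (complete control).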
# [2] = test system: waterhemp_RES2 (ALS & HPPD resistant common waterhemp, Amaranthus rudis); assay: Test E greenhouse herbicide test, postemergence
# How it was run: as §1
# [3] = test system: johnsongrass (Sorghum halepense); assay: Test E greenhouse herbicide test, pre- and postemergence; conditions: Preemergence
# How it was run: (§2)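 Visual ratings, 0 for no effect up to 100 for complete control, were taken relative to controls 14 to 21 d after greenhouse treatment. Applications used a surfactant-containing non-phytotoxic solvent formulation, sprayed either preemergence on silt loam-sown seed or postemergence on 1- to 4-leaf plants 2-18 cm tall in peat-based potting medium.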
# soybean (Glycine max) = assay: as above
# How it was run: as §2
# [4] = test system: arrowleaf sida (Sida rhombifolia); assay: as above
# How it was run: as §2
# [5] = test system: sandbur (southem sandbur, Cenchrus echinatus); assay: as above
# How it was run: as §2
# [6] = test system: velvetleaf (Abutilon theophrasti); assay: as above; conditions: Preemergence
# How it was run: as §2
# kochia (Kochia scoparia) = assay: as above
# How it was run: as §2
# [7] = test system: lambsquarters (Chenopodium album); assay: as above; conditions: Preemergence
# How it was run: as §2
# [8] = test system: nutsedge, yellow (yellow nutsedge, Cyperus esculentus); assay: as above; conditions: Preemergence
# How it was run: as §2
# [9] = test system: foxtail, giant (giant foxtail, Setaria faberii); assay: as above; conditions: Preemergence
# How it was run: as §2
# [10] = test system: pigweed, palmer (palmer pigweed, Amaranthus palmeri); assay: as above
# How it was run: as §2
# [11] = test system: horseweed (Conyza canadensis); assay: as above
# How it was run: as §2
# [12] = test system: waterhemp (common waterhemp, Amaranthus rudis); assay: as above
# How it was run: as §2
# [13] = test system: ragweed (common ragweed, Ambrosia elatior); assay: as above
# How it was run: as §2
# [14] = test system: foxtail, green (green foxtail, Setaria viridis); assay: as above; conditions: Preemergence
# How it was run: as §2
# [15] = test system: crabgrass, Brazilian (Brazilian crabgrass, Digitaria horizontalis); assay: as above
# How it was run: as §2
# [16] = 31 g ai/ha, visual, scale 0 no effect to 100 complete control
# [17] = 125 g ai/ha, scale 0 to 100 (0 no effect, 100 complete control)
# [18] = 250 g ai/ha, scale 0 to 100 (0 no effect, 100 complete control)
# [19] = 31 g ai/ha, scale 0 to 100, 0 no effect, 100 complete control
# [20] = 250 g ai/ha, visual, scale 0 no effect to 100 complete control
# [21] = 125 g ai/ha, Postemergence, scale 0 to 100 (0 no effect, 100 complete control)
# [22] = 125 g ai/ha, Preemergence, scale 0 to 100 (0 no effect, 100 complete control)
# [23] = 250 g ai/ha, Postemergence, scale 0 to 100 (0 no effect, 100 complete control)
# [24] = Postemergence, 31 g ai/ha, visual, scale 0 no effect to 100 complete control
# [25] = Preemergence, 31 g ai/ha, scale 0 to 100, 0 no effect, 100 complete control
# [26] = 62 g ai/ha, Postemergence, scale 0 to 100 (0 no effect, 100 complete control)
# [27] = 62 g ai/ha, Preemergence, scale 0 to 100 (0 no effect, 100 complete control)
# [28] = Preemergence, 250 g ai/ha, visual, scale 0 no effect to 100 complete control
# [29] = 62 g ai/ha, scale 0 to 100 (0 no effect, 100 complete control)
smiles,measurement,setting,value
CC(=O)Oc1c(C)nn(C)c(=O)c1-c1c(C)cc(C)c2ccccc12 [Compound 153],"Plant response rating, Waterhemp_RES1",[1]; [16],50
same,"Plant response rating, Waterhemp_RES1",[1]; [17],50
same,"Plant response rating, Waterhemp_RES1",[1]; [18],60
same,"Plant response rating, Waterhemp_RES2",[2]; [16],10
same,"Plant response rating, Waterhemp_RES2",[2]; [17],30
same,"Plant response rating, Waterhemp_RES2",[2]; [18],50
same,"Plant response rating, Johnsongrass",[3]; [19],0
same,"Plant response rating, Johnsongrass",[3]; [20],60
same,"Plant response rating, Soybean",soybean (Glycine max); [21],10
same,"Plant response rating, Soybean",soybean (Glycine max); [22],30
same,"Plant response rating, Soybean",soybean (Glycine max); [23],25
same,"Plant response rating, Soybean",soybean (Glycine max); [24],0
same,"Plant response rating, Soybean",soybean (Glycine max); [25],30
same,"Plant response rating, Arrowleaf Sida",[4]; [26],50
same,"Plant response rating, Arrowleaf Sida",[4]; [27],70
same,"Plant response rating, Arrowleaf Sida",[4]; [21],40
same,"Plant response rating, Arrowleaf Sida",[4]; [22],60
same,"Plant response rating, Arrowleaf Sida",[4]; [23],40
same,"Plant response rating, Arrowleaf Sida",[4]; [24],40
same,"Plant response rating, Arrowleaf Sida",[4]; [25],50
same,"Plant response rating, Arrowleaf Sida",[4]; [28],75
same,"Plant response rating, Sandbur",[5]; [21],60
same,"Plant response rating, Sandbur",[5]; [22],85
same,"Plant response rating, Sandbur",[5]; [23],70
same,"Plant response rating, Sandbur",[5]; [24],50
same,"Plant response rating, Sandbur",[5]; [25],80
same,"Plant response rating, Sandbur",[5]; [28],90
same,"Plant response rating, Velvetleaf",[6]; [17],90
same,"Plant response rating, Velvetleaf",[6]; [19],85
same,"Plant response rating, Velvetleaf",[6]; [20],100
same,"Plant response rating, Kochia",kochia (Kochia scoparia); [26],50
same,"Plant response rating, Kochia",kochia (Kochia scoparia); [21],55
same,"Plant response rating, Kochia",kochia (Kochia scoparia); [22],50
same,"Plant response rating, Kochia",kochia (Kochia scoparia); [23],70
same,"Plant response rating, Kochia",kochia (Kochia scoparia); [24],50
same,"Plant response rating, Kochia",kochia (Kochia scoparia); [25],40
same,"Plant response rating, Kochia",kochia (Kochia scoparia); [28],90
same,"Plant response rating, Lambsquarters",[7]; [17],100
same,"Plant response rating, Lambsquarters",[7]; [19],100
same,"Plant response rating, Lambsquarters",[7]; [20],100
same,"Plant response rating, Nutsedge, Yellow",[8]; [17],80
same,"Plant response rating, Nutsedge, Yellow",[8]; [19],50
same,"Plant response rating, Nutsedge, Yellow",[8]; [20],95
same,"Plant response rating, Foxtail, Giant",[9]; [29],95
same,"Plant response rating, Foxtail, Giant",[9]; [17],95
same,"Plant response rating, Foxtail, Giant",[9]; [19],75
same,"Plant response rating, Foxtail, Giant",[9]; [20],100
same,"Plant response rating, Pigweed, Palmer",[10]; [26],20
same,"Plant response rating, Pigweed, Palmer",[10]; [21],30
same,"Plant response rating, Pigweed, Palmer",[10]; [22],60
same,"Plant response rating, Pigweed, Palmer",[10]; [23],40
same,"Plant response rating, Pigweed, Palmer",[10]; [24],20
same,"Plant response rating, Pigweed, Palmer",[10]; [25],50
same,"Plant response rating, Pigweed, Palmer",[10]; [28],95
same,"Plant response rating, Horseweed",[11]; [26],80
same,"Plant response rating, Horseweed",[11]; [27],100
same,"Plant response rating, Horseweed",[11]; [21],85
same,"Plant response rating, Horseweed",[11]; [22],100
same,"Plant response rating, Horseweed",[11]; [23],85
same,"Plant response rating, Horseweed",[11]; [24],85
same,"Plant response rating, Horseweed",[11]; [25],90
same,"Plant response rating, Horseweed",[11]; [28],100
same,"Plant response rating, Waterhemp",[12]; [21],50
same,"Plant response rating, Waterhemp",[12]; [22],85
same,"Plant response rating, Waterhemp",[12]; [23],75
same,"Plant response rating, Waterhemp",[12]; [24],50
same,"Plant response rating, Waterhemp",[12]; [25],60
same,"Plant response rating, Waterhemp",[12]; [28],100
same,"Plant response rating, Ragweed",[13]; [26],70
same,"Plant response rating, Ragweed",[13]; [21],80
same,"Plant response rating, Ragweed",[13]; [22],95
same,"Plant response rating, Ragweed",[13]; [23],90
same,"Plant response rating, Ragweed",[13]; [24],75
same,"Plant response rating, Ragweed",[13]; [25],100
same,"Plant response rating, Ragweed",[13]; [28],100
same,"Plant response rating, Foxtail, Green",[14]; [29],75
same,"Plant response rating, Foxtail, Green",[14]; [17],90
same,"Plant response rating, Foxtail, Green",[14]; [19],50
same,"Plant response rating, Foxtail, Green",[14]; [20],95
same,"Plant response rating, Crabgrass, Brazil",[15]; [26],30
same,"Plant response rating, Crabgrass, Brazil",[15]; [27],70
same,"Plant response rating, Crabgrass, Brazil",[15]; [21],40
same,"Plant response rating, Crabgrass, Brazil",[15]; [22],100
same,"Plant response rating, Crabgrass, Brazil",[15]; [23],50
same,"Plant response rating, Crabgrass, Brazil",[15]; [24],20
same,"Plant response rating, Crabgrass, Brazil",[15]; [25],90
same,"Plant response rating, Crabgrass, Brazil",[15]; [28],100
